Earlier results on 94 molecules are cited in patent US20080104001A1, “ALGORITHM FOR ESTIMATION OF BINDING EQULIBRIA IN INCLUSION COMPLEXATION, HOST COMPOUNDS IDENTIFIED THEREBY AND COMPOSITIONS OF HOST COMPOUND AND PHARMACEUTICAL” (priority 2006, published 2008).

Like-named read-outs stand apart in the source and are kept apart here.

For this series the following is noted: for Log K(1:1) Measured: cross-validation set, literature values.
The mark [1] stands for this setting: training set, published stability constants (Connors, 1995).
Setting [2] is: validation set, known binding constants.

Consider `CCC1(CC)C(=O)NC(=S)NC1=O` [5,5-diethyl-2-thiobarbituric acid], for which the “Log K(1:1)” value under setting [1] is listed as 2.47.
In the case of `Cc1ccc(C(=O)O)cc1` [p-toluic acid], the “Log K(1:1)” value under setting [2] is reported as 3.23.
On to `O=C1NC(=O)C(c2ccccc2)(c2ccccc2)N1` [Phenytoin], for which the “Log K(1:1)” value under setting [1] was 2.93.
On to `Brc1ccc(Br)cc1` [1,4-dibromobenzene], for which the “Log K(1:1)” value under setting [1] is recorded as 2.97.
On to `Oc1cccc2ccccc12` [1-naphthol], for which the “Log K(1:1)” value under setting [1] is recorded as 2.09.
For `Ic1ccc(I)cc1` [1,4 diiodobenzene], the “Log K(1:1) Measured” value is recorded as 3.18.
For the molecule `CC(=O)OCC(=O)[C@@]1(O)CC[C@H]2[C@@H]3CCC4=CC(=O)C=C[C@]4(C)[C@H]3[C@@H](O)C[C@@]21C` [prednisolone-21-acetate], the “Log K(1:1)” value under setting [1] is listed as 3.76.
Consider `CC(=O)OCC(=O)[C@@]1(O)CC[C@H]2[C@@H]3CCC4=CC(=O)CC[C@]4(C)[C@H]3[C@@H](O)C[C@@]21C` [hydrocortisone-21-acetate], for which, under setting [2], the “Log K(1:1)” value was 3.51.
For `Nc1ccccc1` [Aniline], the “Log K(1:1)” value under setting [1] was 1.89.
In the case of `COc1ccccc1` [Anisole], the “Log K(1:1)” value under setting [1] was 2.14.
For the molecule `Fc1ccccc1` [fluorobenzene], the “Log K(1:1)” value under setting [1] is listed as 1.85.
As for `CCCC(C)O` (centres unmarked) [2-pentanol], the “Log K(1:1)” value under setting [1] is 1.65.
On to `CCC1(CC)C(=O)NC(=O)N(C)C1=O` [metharbital], for which, under setting [1], the “Log K(1:1)” value is recorded as 2.36.
Take `OC1CCC1` [cyclobutanol]: the “Log K(1:1) Measured” value is listed as 1.18.
Take `COc1ccc2c(c1)c(CC(=O)O)c(C)n2C(=O)c1ccc(Cl)cc1` [indomethacin]: the “Log K(1:1) Measured” value is on record as 2.72.
For `CCC1(C2=CCCCC2)C(=O)NC(=O)NC1=O` [Cyclobarbital], the “Log K(1:1)” value under setting [1] was 3.11.
Consider `CC(C)CCO` [3-methyl-1-butanol], for which, under setting [1], the “Log K(1:1)” value is 2.21.
Consider `c1ccc(Nc2ccccc2)cc1` [diphenylamine], for which the “Log K(1:1)” value under setting [1] is recorded as 3.03.
Consider `Brc1ccccc1` [bromobenzene], for which, under setting [1], the “Log K(1:1)” value is reported as 2.49.
Consider `O=C(c1ccccc1)c1ccccc1` [benzophenone], for which the “Log K(1:1)” value under setting [1] is 3.08.
Regarding `c1ccccc1` [benzene], the “Log K(1:1)” value under setting [1] is 2.17.
For the molecule `OC1CCCCCCC1` [Cyclooctanol], the “Log K(1:1)” value under setting [2] is 3.3.
Consider `c1ccc2cc3cc4ccccc4cc3cc2c1` [naphthacene], for which the “Log K(1:1)” value under setting [1] is given as 3.53.
For the molecule `O=C(O)c1cccc(O)c1` [3-hydroxybenzoic acid], the “Log K(1:1) Measured” value was 2.46.
Take `NC(=O)N1c2ccccc2C=Cc2ccccc21` [Carbamazepine]: the “Log K(1:1) Measured” value is 2.83.
On to `FF` [Fluorine], for which the “Log K(1:1)” value under setting [2] was 3.13.
As for `CCCCCCC(C)O` (centres unmarked) [2-octanol], the “Log K(1:1)” value under setting [1] is reported as 3.13.
On to `CCCCC(=O)O[C@]1(C(=O)CO)[C@@H](C)C[C@H]2[C@@H]3CCC4=CC(=O)C=C[C@]4(C)[C@@]3(F)[C@@H](O)C[C@@]21C` [betamethasone-17-valerate], for which, under setting [1], the “Log K(1:1)” value is 3.32.
On to `CCCC1(CC)C(=O)NC(=O)NC1=O` [5-ethyl-5-propylbarbituric acid], for which, under setting [1], the “Log K(1:1)” value is 2.19.
On to `C1=Cc2cccc3cccc1c23` [Acenaphthylene], for which the “Log K(1:1)” value under setting [1] is recorded as 2.41.
For `Cc1ccc(C)c2ccccc12` [1,4-dimethylnaphthalene], under setting [1], the “Log K(1:1)” value is listed as 2.54.
For `Oc1cccc(O)c1` [1,3-benzenediol], the “Log K(1:1)” value under setting [1] was 2.04.
As for `CCCCCCCCO` [1-octanol], under setting [1], the “Log K(1:1)” value was 3.29.
Regarding `Clc1ccccc1` [chlorobenzene], under setting [1], the “Log K(1:1)” value is given as 2.2.
On to `CN1C(=O)CC(=O)N(c2ccccc2)c2cc(Cl)ccc21` [clobazam], for which the “Log K(1:1) Measured” value was 1.73.
Turning to `Nc1ccc(-c2ccc(N)cc2)cc1` [benzidine], the “Log K(1:1) Measured” value is recorded as 3.36.
With `Cc1cccc(C)c1C` [1,2,3-trimethylbenzene], the “Log K(1:1)” value under setting [1] is reported as 2.26.
Regarding `ClC(Cl)(Cl)Cl` [tetrachloromethane], the “Log K(1:1)” value under setting [1] was 2.18.
As for `C1CCCCCCC1` [Cyclooctane], under setting [1], the “Log K(1:1)” value is 3.23.
On to `Oc1ccc(O)cc1` [1,4-benzenediol], for which the “Log K(1:1)” value by setting is: under setting [1], 2.09; under setting [2], 2.09.
As for `O=C1OC(c2ccc(O)cc2)(c2ccc(O)cc2)c2ccccc21` [phenolphthalein], the “Log K(1:1)” value under setting [1] is on record as 4.56.
As for `OC1CCCCC1` [Cyclohexanol], the “Log K(1:1)” value under setting [1] was 2.75.
`CC(C)c1ccccc1` [1-methylethylbenzene]: the “Log K(1:1)” value under setting [1] is given as 3.08.
`CCCCCC(=O)O` [hexanoic acid]: under setting [1], the “Log K(1:1)” value is 2.47.
Consider `C1CCCCC1` [cyclohexane], for which the “Log K(1:1)” value under setting [1] is on record as 2.19.
For the molecule `c1ccc2cc3ccccc3cc2c1` [anthracene], the “Log K(1:1)” value under setting [1] is on record as 3.41.
On to `Nc1ccc(C(=O)O)cc1` [4-aminobenzoic acid], for which the “Log K(1:1) Measured” value is listed as 2.70.
Regarding `C[C@]12C=CC(=O)C=C1CC[C@@H]1[C@@H]2[C@@H](O)C[C@@]2(C)[C@H]1CC[C@]2(O)C(=O)CO` [Prednisolone], the “Log K(1:1)” value under setting [1] is reported as 3.45.
In the case of `Cc1cccc(O)c1` [3-methylphenol], the “Log K(1:1)” value under setting [1] was 2.34 and the “Log K(1:1)” value under setting [2] was 2.34.
Regarding `C[C@]12C=CC(=O)C=C1CC[C@H]1[C@@H]3C[C@@H](O)[C@](O)(C(=O)CO)[C@@]3(C)C[C@H](O)[C@@]12F` [Triamcinolone], the “Log K(1:1)” value under setting [1] is on record as 3.37.
For `CCCCCCCCCC(=O)O` [decanoic acid], the “Log K(1:1)” value under setting [2] was 3.97.
Take `Clc1ccc(Cl)cc1` [1,4-dichlorobenzene]: the “Log K(1:1)” value under setting [1] is recorded as 2.51.
With `C[C@]12CCC(=O)C=C1CC[C@@H]1[C@@H]2C(=O)C[C@@]2(C)[C@H]1CC[C@]2(O)C(=O)CO` [Cortisone], the “Log K(1:1)” value under setting [1] is recorded as 3.39.
With `C[C@]12CC[C@H]3[C@@H](CCC4=CC(=O)CC[C@@]43C)[C@@H]1CC[C@@H]2O` [Testosterone], the “Log K(1:1)” value under setting [1] is reported as 3.8.
Turning to `c1ccc2ccccc2c1` [Naphthalene], under setting [2], the “Log K(1:1)” value is reported as 2.87.
As to `CC(=O)Nc1ccc(O)cc1` [Acetaminophen], under setting [2], the “Log K(1:1)” value was 2.03.
For the molecule `C1COCCN1` [morpholine], the “Log K(1:1)” value under setting [1] is on record as 1.23.
As for `CC(=O)Oc1ccccc1C(=O)O` [acetylsalicylic acid], the “Log K(1:1)” value under setting [2] was 3.23.
Consider `CCCCCC1(CC)C(=O)NC(=O)NC1=O` [5-ethyl-5-pentylbarbituric acid], for which, under setting [1], the “Log K(1:1)” value is 3.1.
As to `CCCCOC(=O)c1ccc(O)cc1` [butylparaben], the “Log K(1:1)” value under setting [1] was 3.32.
In the case of `Cc1ccccc1O` [2-methylphenol], the “Log K(1:1)” value under setting [1] is 2.12.
Consider `Cc1cccc2c(C)cccc12` [1,5-dimethylnaphthalene], for which the “Log K(1:1)” value under setting [1] is 2.3.
Consider `C[C@]12CCC(=O)C=C1CC[C@@H]1[C@@H]2[C@@H](O)C[C@@]2(C)[C@H]1CC[C@]2(O)C(=O)CO` [Hydrocortisone], for which, under setting [2], the “Log K(1:1)” value is reported as 3.46.
As to `CC(=O)OCC(=O)[C@@]1(O)CC[C@H]2[C@@H]3CCC4=CC(=O)CC[C@]4(C)[C@H]3C(=O)C[C@@]21C` [cortisone acetate], the “Log K(1:1)” value under setting [1] is on record as 3.62.
On to `c1cc2c3c(cccc3c1)CC2` [Acenaphthene], for which the “Log K(1:1)” value under setting [2] is recorded as 2.01.
On to `CCCCCCC` [Heptane], for which the “Log K(1:1)” value under setting [1] is 1.84.
As for `O=C(O)C12CCC(CC1)C2` [1-bicyclo[2.2.1]heptanecarboxylic acid], the “Log K(1:1) Measured” value is reported as 4.18.
On to `C1CCCC1` [cyclopentane], for which, under setting [1], the “Log K(1:1)” value was 1.95.
On to `c1ccc2c(c1)cc1ccc3cccc4ccc2c1c34` [benzo[a]pyrene], for which the “Log K(1:1)” value under setting [1] is on record as 3.34.
As for `Oc1ccc2ccccc2c1` [2-naphthol], the “Log K(1:1)” value under setting [1] is given as 2.77.
Regarding `Cc1ccc2ccccc2c1` [2-methylnaphthalene], the “Log K(1:1)” value under setting [1] is 2.85.
With `CC(C(=O)O)c1ccc(-c2ccccc2)c(F)c1` (centres unmarked) [flurbiprofen], under setting [1], the “Log K(1:1)” value was 3.71.
Turning to `c1ccc2c(c1)ccc1ccccc12` [phenanthrene], the “Log K(1:1)” value under setting [1] is recorded as 3.18.
`O=C(O)c1ccc(O)cc1` [p-hydroxybenzoic-acid]: the “Log K(1:1) Measured” value was 3.03. Besides, the “Log K(1:1)” value under setting [1] is on record as 3.03.
With `c1cc2ccc3cccc4ccc(c1)c2c34` [pyrene], the “Log K(1:1)” value under setting [1] was 2.45.
Turning to `CCCOC(=O)c1ccc(O)cc1` [propylparaben], the “Log K(1:1)” value under setting [1] is listed as 2.97.
Regarding `CC(=O)OCC(COC(C)=O)OC(C)=O` [glyceryl triacetate], the “Log K(1:1)” value under setting [2] was 1.15.
Consider `Cc1ccc(C)c(C)c1` [1,2,4-trimethylbenzene], for which the “Log K(1:1)” value under setting [1] is 2.94.
Take `CCOC(=O)c1ccc(N)cc1` [ethyl-p-aminobenzoate]: the “Log K(1:1)” value under setting [2] is listed as 2.69.
`Fc1ccc(F)cc1` [1,4-difluorobenzene]: the “Log K(1:1)” value under setting [1] is on record as 1.6.
Regarding `CC(=O)[C@H]1CC[C@H]2[C@@H]3CCC4=CC(=O)CC[C@]4(C)[C@H]3CC[C@]12C` [Progesterone], the “Log K(1:1)” value under setting [1] is 4.28.
Take `CCN(CC)c1ccccc1` [N,N-diethylaniline]: the “Log K(1:1)” value under setting [1] is on record as 2.96.
On to `O=C1CCCCC1` [cyclohexanone], for which the “Log K(1:1)” value under setting [1] is 2.71.
Turning to `CN[C@@H](C)[C@H](O)c1ccccc1` [Ephedrine], the “Log K(1:1) Measured” value is given as 2.25. In addition, the “Log K(1:1)” value under setting [2] is given as 2.25.
For `O=C(O)C=Cc1ccccc1` [cinnamic acid], the “Log K(1:1)” value under setting [2] was 2.57.
Regarding `CC(C)(C)CO` [2,2-dimethylpropanol], under setting [2], the “Log K(1:1)” value is 2.69.
`O=C1CN=C(c2ccccc2Cl)c2cc([N+](=O)[O-])ccc2N1` [clonazepam]: the “Log K(1:1) Measured” value is given as 1.9.
On to `CCCCCO` [1-pentanol], for which the “Log K(1:1)” value under setting [1] is 1.97.
For the molecule `CCCCCCCC1(CC)C(=O)NC(=O)NC1=O` [5-ethyl-5-heptylbarbituric acid], under setting [1], the “Log K(1:1)” value is 3.61.
`OCc1ccccc1` [benzyl alcohol]: the “Log K(1:1)” value under setting [1] was 1.7.
Take `c1ccc2nc3ccccc3cc2c1` [Acridine]: under setting [1], the “Log K(1:1)” value was 2.46.
On to `O=C(O)Cc1ccccc1Nc1c(Cl)cccc1Cl` [Diclofenac], for which, under setting [1], the “Log K(1:1)” value is given as 2.18.
Consider `O=C(O)c1ccccc1O` [salicylic-acid], for which, under setting [1], the “Log K(1:1)” value is reported as 2.63.
As for `Ic1ccccc1` [iodobenzene], the “Log K(1:1)” value under setting [1] is reported as 2.9.
